Experimental findings from patent publication US6407058B1, “Modifying the permeability of physiological barriers” (Eisai Co., Limited, priority 1996, dated 2002) are described below.

Common to all, as to type: cell-based
Test [1] has as its system p100/p120. In words: p100/p120 electrophoretic mobility, bovine aortic endothelial cells (BAECs). The note with it: 200 nM PDB, 30 minutes. As to the method:
The mobility of p100 and p120 during electrophoresis is also altered by PDB-treatment in endothelial cells. The p100/p120 proteins from human umbilical vein endothelial cells (HUVECs), bovine aortic endothelial cells (BAECs) and primary pig brain endothelial cells (PBECs) were all affected by PDB-treatment. Cells were treated with or without 200 nM PDB for 30 minutes, lysed into Laemmli sample buffer, separated by electrophoresis and analysed by immunoblotting with antibodies recognising p100 and p120. […] Thus the effect of PKC activation (via PDB) on p100/p120 mobility is a widespread phenomenon.
Whole cell lysates were prepared by rapidly replacing the culture medium in 6.5 mm with hot Laemmli sample buffer, followed by heating at 100° C. for 5 minutes. Immunoprecipitations were carried out at 4° C. Confluent monolayers of cells were washed rapidly with ice cold PBS (containing 0.9 mM CaCl2 and 0.5 mM MgCl2) before addition of 0.5 ml of the appropriate buffer. The filters were then gently scraped, and the lysate was removed and centrifuged at 14000× g. […]
(§1) Cell extracts or immunoprecipitates in SDS sample buffer were resolved by SDS-PAGE. […] The filters were then extensively washed in PBS/0.5% Tween-20, and immunoreactive bands were detected by enhanced chemiluminescence (Amersham) following the manufacturers instructions.

The test system of test [2] is E-cadherin-associated p100/p120. In words: E-cadherin immunoprecipitation and p100/p120 immunoblotting, MDCK I cells.
Text: It has been shown that although some of the p100/p120 in cells is associated with adherens junctions, there is also a large pool that is not complexed with cadherins (at least by immunoprecipitation analysis). […] This procedure served to isolate only that portion of the cellular p100/p120 that associates with the cadherins. Following electrophoresis, and transfer to nitrocellulose, the p100 and p120 present in E-cadherin immunoprecipitates were detected by immunoblotting (Example 9A). […] In both cases, p100/p120 is shown to be present at regions of cell—cell contact.
Whole cell lysates were prepared by rapidly replacing the culture medium in 6.5 mm with hot Laemmli sample buffer, followed by heating at 100° C. for 5 minutes. Immunoprecipitations were carried out at 4° C. Confluent monolayers of cells were washed rapidly with ice cold PBS (containing 0.9 mM CaCl2 and 0.5 mM MgCl2) before addition of 0.5 ml of the appropriate buffer. The filters were then gently scraped, and the lysate was removed and centrifuged at 14000× g. The supernatant was precleared with 10% (w/v) protein A-Sepharose in lysis buffer for 30-60 minutes. Appropriate primary antibodies were added to the lysate, and after 2-3 hours the immunecomplex was isolated, using rabbit anti-mouse secondary antibodies (Jackson Immunoresearch Labs Inc., West Grove, Pa.) and protein A-Sepharose. The beads were washed fives times with lysis buffer, and the bound protein was solubilized in SDS-sample buffer, followed by heating at 100° C. for 5 minutes.
For Immunoprecipitations, Triton lysis buffer or TDS lysis buffer was used. Triton lysis buffer (pH adjusted to 7.4 using NaOH) contained 25 mM Hepes, 1% Triton X-100, 2 mM EDTA, 0.1 M NaCl, 25 mM NaF, 1 mM vanadate, and protease inhibitors. […]
as §1
For orientation: A western blot detects proteins with antibodies after separation by electrophoresis.

The test system of test [3] is p100/p120. In words: p100/p120 electrophoretic mobility, Caco-2 cells. The note with it: 200 nM PDB, 30 minutes. As to the method: p100 and p120 electrophoretic mobility is affected by PDB in a number of different epithelial cell lines. LLC-PK1, (a porcine kidney cell line), MDCK strain II cells and gut-derived Caco-2 cells were treated with or without 200 nM PDB for 30 minutes, lysed into Laemmli sample buffer, separated by electrophoresis and analysed by immunoblotting.
MDCK strain I and II cells were provided by Barry Gumbiner (memorial Sloan-Kettering Cancer Center, NY). LLC-PK1 and Caco-2 cells were obtained from the European Collection of Animal Cell Cultures. All cells were maintained at 37° C. under 5% CO2 in humidified air. MDCK strain I and II cells were maintained in MEM containing 10% FCS, 100 U/ml penicillin, 100 μg/ml streptomycin and 2 mM L-glutamine. Caco-2 cells were maintained in MEM containing 15% FCS, 1% non-essential amino acids and 1 μg/ml bovine insulin (Sigma I-6634). LLC-PK1 cells were grown in M199 (Gibco), 10% FCS, 100 U/ml penicillin, 100 μg/ml streptomycin and 2 mM L-glutamine. For whole cell lysate analysis, 10^5 cells were plated on 6.5 mm diameter, 0.4 μm, polycarbonate Transwell filters from Costar, in 0.25 ml of medium. The basolateral chamber contained 0.75 ml of medium. For immunoprecipitation, 5×10^5 cells were plated onto 24 mm Transwell filters, in 2 ml of medium, with 3 ml of medium in the lower chamber. Cells were used 4-7 days after plating. […]

In another test the test system is E-cadherin. In words: [32P] phosphorylation of immunoprecipitated E-cadherin, MDCK I cells. The following applies: PDB-treated, same cell lysates.

With `CCCC(=O)O[C@@H]1[C@@H](C)[C@@]2(O)[C@@H](C=C(CO)C[C@]3(O)C(=O)C(C)=C[C@@H]23)[C@@H]2C(C)(C)[C@]12OC(=O)CCC` [PDB, Phorbol-12,13-dibutyrate], the “mobility of p100 and p120” value in the test with p100/p120 [1] was “the mobility of p100 and p120 increased”. Further, in test [2] (PDB, Triton lysis buffer, E-cadherin immunoprecipitates), the “phosphorylation of E-cadherin-associated p100/p120” value is recorded as “is dephosphorylated”. In addition, in test [2] (PDB, data not shown), the “phosphorylation of non-E-cadherin-associated p100/p120” value is “subject to dephosphorylation”. For the same compound, the “amount of p100 and p120 present in E-cadherin immunoprecipitates” value in test [2] (after addition of PDB) is “no obvious change”. The “migration of p100 and p120” value in the test with p100/p120 [3] is reported as “less striking, but still present”. In addition, in the test with E-cadherin, the “phosphorylation of E-cadherin” value is reported as “no change”.
